Measurements taken from patent publication US12350259B2, “Methods of treating migraine” (Allergan Pharmaceuticals International Limited, priority 2021, dated 2025).
Where two headings read alike, the source gives them in different places.

Columns and labels:
[1] = Hepatic impairment study: safety and tolerability; assay type: in vivo, human; details: single 60 mg dose, all hepatic function groups
Protocol: A multicenter, non-randomized, open-label, parallel-group, single-dose study was carried out to evaluate the PK, safety, and tolerability profiles of atogepant in participants with impaired hepatic function and matched healthy participants with normal hepatic function after a single 60-mg oral dose of atogepant. The primary outcome measures were PK parameters of atogepant derived from plasma concentrations. Safety measures were AEs, clinical laboratory determinations, vital sign parameters, electrocardiographic results, and physical examination findings.

[2] = tested on: patients with episodic migraine; experiment: Study 1 (NCT03777059): preventive treatment of episodic migraine, efficacy; assay type: in vivo, human
Protocol: The studies enrolled patients with at least a 1-year history of migraine with or without aura, according to the International Classification of Headache Disorders (ICHD-3) diagnostic criteria. In Study 1 (NCT03777059), 910 patients were randomized 1:1:1:1 to receive atogepant 10 mg (N=222), atogepant 30 mg (N=230), atogepant 60 mg (N=235), or placebo (N=223), once daily for 12 weeks. In Study 2 (NCT02848326), 652 patients were randomized 1:2:2:2 to receive atogepant 10 mg (N=94), atogepant 30 mg (N=185), atogepant 60 mg (N=187), or placebo (N=186), once daily for 12 weeks. In both studies, patients were allowed to use acute headache treatments (i.e., triptans, ergotamine derivatives, NSAIDs, acetaminophen, and opioids) as needed. The use of a concomitant medication that acts on the CGRP pathway was not permitted for either acute or preventive treatment of migraine. The studies excluded patients with myocardial infarction, stroke, or transient ischemic attacks within six months prior to screening. The primary efficacy endpoint was the change from baseline in mean monthly migraine days (MMD) across the 12-week treatment period. Secondary endpoints included the change from baseline in mean monthly headache days, the change from baseline in mean monthly acute medication use days, the proportion of patients achieving at least a 50% reduction from baseline in mean MMD (3-month average), the change from baseline in mean monthly Activity Impairment in Migraine-Diary (AIM-D) Performance of Daily Activities (PDA) domain scores, the change from baseline in mean monthly AIM-D Physical Impairment (PI) domain scores, across the 12 week treatment period, and the change from baseline at Week 12 for Migraine Specific Quality of Life Questionnaire version 2.1 (MSQ v2.1) Role Function-Restrictive (RFR) domain scores. The AIM-D evaluates difficulty with performance of daily activities (PDA domain) and physical impairment (PI domain) due to migraine, with scores ranging from 0 to 100. Higher scores indicate greater impact of migraine, and reductions from baseline indicate improvement. The MSQ v2.1 Role Function-Restrictive (RFR) domain score assesses how often migraine impacts function related to daily social and work-related activities over the past 4 weeks, with scores ranging from 0 to 100. Higher scores indicate lesser impact of migraine on daily activities, and increases from baseline indicate improvement.

[3] = Atogepant-topiramate interaction study, cohort 1: atogepant steady-state PK; assay type: in vivo, human; details: for AUC / Cmax / Tmax: both sexes, human, plasma; for Tmax: read-out: Tmax,ss (median)
Protocol: The duration of the study was 25 days (±2 days), which included day −1 through the follow-up visit and excluded the screening period. The screening period was up to 21 days before day 1 and the intervention period was a total of 19 days, at which point the end of dosing visit was conducted. […] Clinical laboratory tests were performed at the follow-up visit, which was conducted on day 24 (7 [±2] days after the last dose of study medication. […] The primary endpoints were area under the plasma concentration-time curve during dosing interval at steady state (AUC0-tau,ss) and maximum plasma drug concentration at steady state (Cmax,ss) of atogepant and topiramate when coadministered and when administered alone. Additional PK parameters included time of maximum plasma drug concentration at steady state (Tmax,ss), average plasma drug concentration at steady state (Cavg,ss), and minimum plasma drug concentration at steady state (Cmin,ss) of topiramate and atogepant when coadministered and when administered alone.

[4] = Plasma protein binding in human plasma; assay type: in vitro ADME; details: human plasma
[5] = tested on: plasma protein; experiment: Plasma protein binding in human plasma; assay type: in vitro ADME; details: range of 0.1 to 10 μM
[6] = molecular target: CYP2B6 (Homo sapiens, UniProt P20813); experiment: In vitro CYP inhibition; assay type: in vitro ADME; details: clinically relevant concentrations
CYP2B6, sequence (P20813 whole entry): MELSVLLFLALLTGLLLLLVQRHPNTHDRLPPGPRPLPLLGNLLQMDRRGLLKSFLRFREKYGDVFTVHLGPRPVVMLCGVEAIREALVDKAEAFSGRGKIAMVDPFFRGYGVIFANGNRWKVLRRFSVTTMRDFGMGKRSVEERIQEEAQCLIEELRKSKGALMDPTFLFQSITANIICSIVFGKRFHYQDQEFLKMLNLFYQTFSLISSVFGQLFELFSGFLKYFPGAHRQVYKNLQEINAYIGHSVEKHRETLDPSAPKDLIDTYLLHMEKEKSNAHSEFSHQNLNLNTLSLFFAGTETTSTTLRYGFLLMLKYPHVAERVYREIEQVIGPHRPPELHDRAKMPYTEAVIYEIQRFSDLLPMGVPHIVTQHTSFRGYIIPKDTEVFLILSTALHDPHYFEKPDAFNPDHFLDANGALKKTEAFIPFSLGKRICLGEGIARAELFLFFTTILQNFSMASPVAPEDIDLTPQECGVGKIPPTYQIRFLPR

[7] = molecular target: CYP2C9 (Homo sapiens, UniProt P11712); experiment: In vitro CYP inhibition; assay type: in vitro ADME; details: clinically relevant concentrations
CYP2C9, sequence (P11712 whole entry): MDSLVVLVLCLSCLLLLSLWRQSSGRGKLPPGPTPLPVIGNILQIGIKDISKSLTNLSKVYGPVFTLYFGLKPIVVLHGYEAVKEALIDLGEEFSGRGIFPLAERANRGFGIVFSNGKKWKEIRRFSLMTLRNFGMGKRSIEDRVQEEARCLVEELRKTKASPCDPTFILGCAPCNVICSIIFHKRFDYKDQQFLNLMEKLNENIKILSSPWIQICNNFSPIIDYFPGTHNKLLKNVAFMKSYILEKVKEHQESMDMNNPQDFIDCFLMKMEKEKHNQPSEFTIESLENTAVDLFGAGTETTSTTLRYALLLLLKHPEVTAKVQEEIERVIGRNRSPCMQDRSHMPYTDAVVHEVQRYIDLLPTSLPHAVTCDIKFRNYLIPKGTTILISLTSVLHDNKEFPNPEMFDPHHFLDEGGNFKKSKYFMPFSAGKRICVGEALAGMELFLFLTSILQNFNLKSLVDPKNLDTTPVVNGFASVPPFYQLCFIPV

[8] = molecular target: CYP2C19 (Homo sapiens, UniProt P33261); experiment: In vitro CYP inhibition; assay type: in vitro ADME; details: clinically relevant concentrations
CYP2C19, sequence (P33261 whole entry): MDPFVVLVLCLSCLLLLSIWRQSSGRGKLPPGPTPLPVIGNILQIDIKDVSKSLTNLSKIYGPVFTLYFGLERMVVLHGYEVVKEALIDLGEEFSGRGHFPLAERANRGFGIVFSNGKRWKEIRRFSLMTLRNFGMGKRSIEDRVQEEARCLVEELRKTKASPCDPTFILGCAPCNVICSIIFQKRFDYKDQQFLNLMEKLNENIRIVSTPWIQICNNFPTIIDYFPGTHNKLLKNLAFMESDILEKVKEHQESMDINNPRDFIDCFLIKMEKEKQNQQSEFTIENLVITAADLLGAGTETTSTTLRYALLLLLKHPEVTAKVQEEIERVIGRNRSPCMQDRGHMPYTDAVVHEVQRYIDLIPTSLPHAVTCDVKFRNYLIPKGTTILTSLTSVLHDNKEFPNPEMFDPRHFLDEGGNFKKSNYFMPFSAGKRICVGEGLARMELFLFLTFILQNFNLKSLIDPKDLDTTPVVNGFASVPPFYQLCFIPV

[9] = molecular target: CYP2D6 (Homo sapiens, UniProt P10635); experiment: In vitro CYP inhibition; assay type: in vitro ADME; details: clinically relevant concentrations
CYP2D6, sequence (P10635 whole entry): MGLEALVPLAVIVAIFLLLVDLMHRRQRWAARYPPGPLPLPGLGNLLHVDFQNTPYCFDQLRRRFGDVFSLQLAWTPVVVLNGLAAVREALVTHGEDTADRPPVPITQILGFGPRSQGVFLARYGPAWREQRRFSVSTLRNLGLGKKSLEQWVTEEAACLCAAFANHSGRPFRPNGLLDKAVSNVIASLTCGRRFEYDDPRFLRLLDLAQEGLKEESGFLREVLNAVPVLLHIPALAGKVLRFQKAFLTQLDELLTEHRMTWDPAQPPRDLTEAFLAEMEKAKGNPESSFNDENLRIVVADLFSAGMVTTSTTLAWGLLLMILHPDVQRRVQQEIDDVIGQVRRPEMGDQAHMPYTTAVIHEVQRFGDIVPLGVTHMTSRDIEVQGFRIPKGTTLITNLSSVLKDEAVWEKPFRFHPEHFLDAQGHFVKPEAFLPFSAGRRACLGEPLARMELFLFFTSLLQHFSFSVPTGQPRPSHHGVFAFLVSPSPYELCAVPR

[10] = molecular target: OCT1 (Homo sapiens, UniProt O15245); experiment: Transporter inhibition; assay type: in vitro ADME
OCT1, sequence (O15245 whole entry): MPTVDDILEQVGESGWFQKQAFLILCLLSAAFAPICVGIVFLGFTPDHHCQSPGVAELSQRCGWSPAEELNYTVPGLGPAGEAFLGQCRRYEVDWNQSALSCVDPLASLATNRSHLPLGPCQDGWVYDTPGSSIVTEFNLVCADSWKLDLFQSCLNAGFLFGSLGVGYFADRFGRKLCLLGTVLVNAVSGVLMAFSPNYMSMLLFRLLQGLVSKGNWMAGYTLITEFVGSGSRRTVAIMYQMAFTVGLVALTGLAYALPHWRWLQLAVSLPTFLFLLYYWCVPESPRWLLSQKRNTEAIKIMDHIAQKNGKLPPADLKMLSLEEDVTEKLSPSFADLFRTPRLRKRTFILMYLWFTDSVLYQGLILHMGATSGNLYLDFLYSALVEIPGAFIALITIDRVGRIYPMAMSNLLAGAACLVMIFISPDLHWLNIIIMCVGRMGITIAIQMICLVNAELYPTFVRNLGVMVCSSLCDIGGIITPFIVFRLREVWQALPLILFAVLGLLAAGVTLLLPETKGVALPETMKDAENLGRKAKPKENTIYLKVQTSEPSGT

[11] = Study 1, atogepant 10 mg once daily
[12] = Study 1, atogepant 30 mg once daily
[13] = Study 1, atogepant 60 mg once daily
[14] = atogepant 60 mg QD + topiramate 100 mg BID, day 17
[15] = atogepant 60 mg QD alone, day 7

With C[C@@H]1[C@H](c2c(F)ccc(F)c2F)C[C@H](NC(=O)c2cnc3c(c2)C[C@@]2(C3)C(=O)Nc3ncccc32)C(=O)N1CC(F)(F)F [atogepant, (3′S)-N-[(3S,5S,6R)-6-methyl-2-oxo-1-(2,2,2-trifluoroethyl)-5-(2,3,6-trifluorophenyl)piperidin-3-yl]-2′-oxo-1′,2′,5,7-tetrahydrospiro[cyclopenta[b]pyridine-6,3′-pyrrolo[2,3-b]pyridine]-3-carboxamide] as the compound, how does the tolerability [1] read?
The tolerability was “well tolerated”.

And the “AIM-D PDA Domain across 12 weeks, difference from placebo” value [2, 11]?
The value was −1.2.

What about the “AIM-D PDA Domain across 12 weeks, mean change from baseline” value [2, 11] of the same compound?
Its value is −7.3.

What about the “AIM-D PI Domain across 12 weeks, difference from placebo” value [2, 11] of the same compound?
Its value is −1.1.

And the “AIM-D PI Domain across 12 weeks, mean change from baseline” value [2, 11]?
The value was −5.1.

And the “MSQ v2.1 RFR Domain at week 12, difference from placebo” value [2, 11]?
The value was 9.9.

What about the “MSQ v2.1 RFR Domain at week 12, mean change from baseline” value [2, 11] of the same compound?
The value was 30.4.

And the “Monthly Acute Medication Use Days across 12 weeks, difference from placebo” value [2, 11]?
The value was −1.3.

What about the “Monthly Acute Medication Use Days across 12 weeks, mean change from baseline” value [2, 11] of the same compound?
The value was −3.7.

And the “Monthly Headache Days across 12 weeks, difference from placebo” value [2, 11]?
The value was −1.4.

What about the “Monthly Headache Days across 12 weeks, mean change from baseline” value [2, 11] of the same compound?
Its value is −3.9.

What about the “Monthly Migraine Days (MMD) across 12 weeks, difference from placebo” value (“Monthly Migraine Days … difference from placebo” for short) [2, 11] of the same compound?
Its value is −1.2.

What about the “Monthly Migraine Days (MMD) across 12 weeks, mean change from baseline” value [2, 11] of the same compound?
The value was −3.7.

And the “≥50% MMD Responders across 12 weeks, % Responders” value [2, 11]?
Its value is 56%.

And the “≥50% MMD Responders across 12 weeks, difference from placebo” value [2, 11]?
The value was 27%.

And the “AIM-D PDA Domain across 12 weeks, difference from placebo” value [2, 12]?
Its value is −2.5.

What about the “AIM-D PDA Domain across 12 weeks, mean change from baseline” value [2, 12] of the same compound?
The value was −8.6.

And the “AIM-D PI Domain across 12 weeks, difference from placebo” value [2, 12]?
Its value is −2.0.

What about the “AIM-D PI Domain across 12 weeks, mean change from baseline” value [2, 12] of the same compound?
The value was −6.0.

What about the “MSQ v2.1 RFR Domain at week 12, difference from placebo” value [2, 12] of the same compound?
Its value is 10.1.

What about the “MSQ v2.1 RFR Domain at week 12, mean change from baseline” value [2, 12] of the same compound?
Its value is 30.5.

What about the “Monthly Acute Medication Use Days across 12 weeks, difference from placebo” value [2, 12] of the same compound?
Its value is −1.3.

What about the “Monthly Acute Medication Use Days across 12 weeks, mean change from baseline” value [2, 12] of the same compound?
The value was −3.7.

What about the “Monthly Headache Days across 12 weeks, difference from placebo” value [2, 12] of the same compound?
Its value is −1.5.

And the “Monthly Headache Days across 12 weeks, mean change from baseline” value [2, 12]?
Its value is −4.0.

And the “Monthly Migraine Days … difference from placebo” value [2, 12]?
Its value is −1.4.

And the “Monthly Migraine Days (MMD) across 12 weeks, mean change from baseline” value [2, 12]?
Its value is −3.9.

And the “≥50% MMD Responders across 12 weeks, % Responders” value [2, 12]?
Its value is 59%.

And the “≥50% MMD Responders across 12 weeks, difference from placebo” value [2, 12]?
The value was 30%.

What about the “AIM-D PDA Domain across 12 weeks, difference from placebo” value [2, 13] of the same compound?
The value was −3.3.

And the “AIM-D PDA Domain across 12 weeks, mean change from baseline” value [2, 13]?
The value was −9.4.

And the “AIM-D PI Domain across 12 weeks, difference from placebo” value [2, 13]?
Its value is −2.5.

And the “AIM-D PI Domain across 12 weeks, mean change from baseline” value [2, 13]?
The value was −6.5.

What about the “MSQ v2.1 RFR Domain at week 12, difference from placebo” value [2, 13] of the same compound?
Its value is 10.8.

And the “MSQ v2.1 RFR Domain at week 12, mean change from baseline” value [2, 13]?
The value was 31.3.

And the “Monthly Acute Medication Use Days across 12 weeks, difference from placebo” value [2, 13]?
Its value is −1.5.

What about the “Monthly Acute Medication Use Days across 12 weeks, mean change from baseline” value [2, 13] of the same compound?
The value was −3.9.

And the “Monthly Headache Days across 12 weeks, difference from placebo” value [2, 13]?
The value was −1.7.

What about the “Monthly Headache Days across 12 weeks, mean change from baseline” value [2, 13] of the same compound?
Its value is −4.2.

And the “Monthly Migraine Days … difference from placebo” value [2, 13]?
Its value is −1.7.

What about the “Monthly Migraine Days (MMD) across 12 weeks, mean change from baseline” value [2, 13] of the same compound?
The value was −4.2.

What about the “≥50% MMD Responders across 12 weeks, % Responders” value [2, 13] of the same compound?
The value was 61%.

What about the “≥50% MMD Responders across 12 weeks, difference from placebo” value [2, 13] of the same compound?
Its value is 32%.

What about the “Cavg,ss” value [3, 14] of the same compound?
The value was 95.8 ng/mL.

And the “Cmin,ss” value [3, 14]?
Its value is 6.3 ng/mL.

What about the “Cavg,ss” value [3, 15] of the same compound?
The value was 125.6 ng/mL.

What about the “Cmin,ss” value [3, 15] of the same compound?
The value was 10.2 ng/mL.

What about the AUC ([3]; 60 mg, Atogepant Alone, read-out: AUC0-tau,ss Geometric LSM) of the same compound?
Its AUC is 2720 ng·h/mL.

And the Cmax ([3]; 60 mg, Atogepant Alone, read-out: Cmax,ss Geometric LSM)?
The Cmax was 535 ng/mL.

And the AUC ([3]; 60 mg, atogepant 60 mg QD alone, day 7, read-out: AUC0-tau,ss)?
Its AUC is 3020 ng·h/mL.

And the Cmax ([3]; 60 mg, atogepant 60 mg QD alone, day 7, read-out: Cmax,ss)?
Its Cmax is 626 ng/mL.

And the AUC ([3]; Atogepant and Topiramate, read-out: AUC0-tau,ss Geometric LSM)?
The AUC was 2030 ng·h/mL.

What about the Cmax ([3]; Atogepant and Topiramate, read-out: Cmax,ss Geometric LSM) of the same compound?
The Cmax was 406 ng/mL.

And the AUC ([3]; atogepant 60 mg QD + topiramate 100 mg BID, day 17, read-out: AUC0-tau,ss)?
Its AUC is 2300 ng·h/mL.

And the Cmax ([3]; atogepant 60 mg QD + topiramate 100 mg BID, day 17, read-out: Cmax,ss)?
Its Cmax is 491 ng/mL.

What about the Tmax [3, 14] of the same compound?
The Tmax was 2 h.

And the Tmax [3, 15]?
Its Tmax is 2 h.

And the “reduction of atogepant AUC0-tau,ss” value ([3]; coadministered with topiramate)?
The value was 25%.

And the “reduction of atogepant Cmax,ss” value ([3]; coadministered with topiramate)?
Its value is 24%.

And the fraction unbound [4]?
Its fraction unbound is about 0.047.

And the “concentration dependence of plasma protein binding” value [5]?
The value was “not concentration-dependent”.

And the “inhibition of CYP2B6” value [6]?
The value was “not an inhibitor”.

And the “inhibition of CYP2C9” value [7]?
The value was “not an inhibitor”.

What about the “inhibition of CYP2C19” value [8] of the same compound?
The value was “not an inhibitor”.

And the “inhibition of CYP2D6” value [9]?
The value was “not an inhibitor”.

And the “inhibition of OCT1” value [10]?
Its value is “weak inhibitor”.
